Laboratory results published in US20100143440A1, “UL97 INHIBITORS FOR TREATMENT OF PROLIFERATIVE DISORDERS” (The UAB Research Foundation, priority 2007, published 2010).
Like-named read-outs stand apart in the source and are kept apart here.

Key:
[1] = test system: GS strain of HHV-6A; assay: Efficacy against HHV-6A in HSB-2 cells with reduced serum; assay type: cell-based
Procedure: The activity of MBV was evaluated against the GS strain of HHV-6A in HSB-2 cells with reduced serum to slow the growth of lymphocytes.

[2] = target: T1, HCMV UL97 kinase (Human cytomegalovirus, UniProt P16788); assay: Surrogate assay: UL97 kinase dependent inhibition of pp65-GFP nuclear aggregation; assay type: cell-based
T1 construct: expressed in transfected cells; host or cells: COS7 cells (transient co-transfection)

[3] = target: T2, HHV-6B U69 protein kinase (Human herpesvirus 6B, UniProt P52446); assay: Surrogate assay: U69 kinase dependent inhibition of pp65-GFP nuclear aggregation; assay type: cell-based; conditions: 15 μM MBV, FIG. 8; listed as MBV
T2 construct: expressed in transfected cells
From the text: This assay is similar to that reported previously for UL97 (Prichard, M. N., et al., 2005. Human cytomegalovirus UL97 Kinase is required for the normal intranuclear distribution of pp65 and virion morphogenesis. J Virol 79:15494-502). […] Inhibition of aggregation was kinase dependent since the U69B K219M mutation, which eliminates an essential lysine, is incapable of inhibiting aggregation.

[4] = target: T3, UL97 kinase (Human cytomegalovirus, UniProt P16788); assay: UL97 kinase inhibition of pp71 aggregation in cotransfected COS7 cells; assay type: cell-based, HCMV
T3 construct: expressed in transfected cells; host or cells: COS7 cells (transient co-transfection)

[5] = target: T4, pUL97 (Human cytomegalovirus, UniProt P16788); assay: Number of PML bodies in COS7 cells expressing pUL97; assay type: cell-based, HCMV; conditions: FIG. 3F
T4 construct: expressed in transfected cells; host or cells: COS7 cells (transient co-transfection)
Procedure: Indirect immunofluorescence microscopy. Cells expressing proteins from transfected plasmids were visualized by methods published previously (Prichard et al., J. Virol. 79:15494-502 (2005)). Briefly, monolayers of HFF cells were grown on 12 mm diameter coverslips in 24-well plates. Transfected cells were fixed for 15 minutes with freshly prepared 2% formaldehyde in phosphate buffered saline (PBS), washed two times with PBS, and membranes were permeabilized with 0.2% Triton X-100 in PBS for 15 minutes. Monoclonal antibody to the V5 epitope tag was purchased from Invitrogen (Carlsbad, Calif.). Monoclonal antibodies to IE1 (63-27) and ppUL44 (28-21) were generously provided by Bill Britt and were used as culture supernatants with goat anti-mouse secondary antibodies conjugated to FITC or Texas Red (Southern Biotechnology, Birmingham, Ala.).
PML bodies are affected by the kinase. Nuclear aggresomes form in a dynamic microtubule dependent process that initiates with fusion of small aggregations located at or near PML bodies. To determine the effect of pUL97 on these structures, this and other proteins were expressed in COST cells and visualized PML bodies with an antibody to SP100, which is a marker of these domains. […] Their number was also unaffected by the expression of pp71, however it colocalized with these structures and is consistent with previous reports. […]

[6] = test system: hyperphosphorylated Rb; assay: Western blot of Rb and p53 in HCMV infected HFF cells; assay type: cell-based, human
Procedure: Polyacrylamide gels and western blotting. HFF cells were infected at a multiplicity of infection of 2 PFU/cell and at 24 and 72 hours following infection they were disrupted in 2× Lamelli buffer (Sigma-Aldrich, St. Louis, Mo.) and separated on 10%, 7.5%, or 5% polyacrylamide gels depending on the size of the protein to be resolved (BioRad, Hercules, Calif.). Separated proteins were transferred to PVDF membranes (Roche Applied Science, Indianapolis, Ind.) in a buffer containing 28 mM Tris, 39 mM glycine, 0.0375% SDS and 20% methanol in a semi dry transfer cell (BioRad, Hercules, Calif.). Membranes were blocked in 1% blocking buffer (Roche Applied Science, Indianapolis, Ind.), incubated with primary antibodies overnight at 4° C. and washed extensively with PBS supplemented with 0.02% tween 20. A secondary antibody conjugated to alkaline phosphatase (Southern Biotechnology Associates, Birmingham, Ala.) and CDP* (Roche Applied Science, Indianapolis, Ind.) were used to detect the bound primary antibody. Monoclonal antibodies used in these studies were directed against PML (H-238) (Santa Cruz Biotechnology, Santa Cruz, Calif.), DAXX (Upstate Cell Signaling Solutions, Tamecula, Calif.), p53, retinoblastoma, β-tubulin, CREB binding protein (CBP) (Chemicon International, Tamecula, Calif.), and both V5 and Xpress (Invitrogen, Carlsbad, Calif.).
UL97 kinase activity is required for the hyperphosphorylation of Rb. […] Proteins in this complex were examined by Western blots using samples derived from HFF cells that were uninfected, infected with AD169 a recombinant virus (RCΔA97) containing a large deletion in UL97 at a multiplicity of infection of 3 PFU/cell. Some of the infections were conducted in the presence of MBV to confirm that the observed changes were due to a deficiency of its kinase activity. […] In cells infected with the wt virus, increases in levels of p53 were observed (FIG. 4 lanes 9-12), but this increase was unaffected by the deletion of the UL97 open reading frame or treatment with maribavir. Also consistent with this previous report was an increase of hyperphosphorylated Rb at both 24 and 72 hours following infection (FIG. 4, lanes 3, 9). […] A previous report has shown that pp71 directs the proteasome dependent degradation of hypophosphorylated Rb, however observations presented here are distinct in that the hyperphosphorylation and stabilization of this form of Rb is inefficient in the absence UL97 kinase activity.

[7] = test system: HHV-6; conditions: Williams-Aziz et al. 2005; cited from earlier work

SMILES: CC(C)Nc1nc2cc(Cl)c(Cl)cc2n1[C@H]1O[C@@H](CO)[C@H](O)[C@@H]1O [maribavir]
- EC50 ([1]; HSB2, GS strain of HHV-6A, HSB-2 cells, reduced serum, read-out: EC50 values under conditions of reduced serum): 9 to 30 µM
- EC50 ([1]; HSB2, HHV-6A in HSB-2 cells, 2% FBS, read-out: EC50): 30 µM
- EC50 ([1]; HSB2, HHV-6A in HSB-2 cells, 5% FBS, read-out: EC50): 9 µM
- EC50 ([1]; HSB2, HHV-6A in HSB-2 cells, 10% FBS, read-out: EC50): > 50 µM
- Effect on ability of UL97 to inhibit pp65-GFP aggregation ([2]; 15 μM MBV, FIG. 8, listed as MBV): reduces the ability of UL97 and U69 to inhibit aggregation
- Effect on inhibition of pp65 aggregate formation by the kinase ([2]; COS7 cells co-expressing pp65-GFP and UL97): antagonized
- Effect on ability of U69 to inhibit pp65-GFP aggregation [3]: reduces the ability of UL97 and U69 to inhibit aggregation
- Effect on kinase inhibition of pp71 aggregation [4]: unable to inhibit the aggregation of pp71 in the presence of MBV
- Effect on pUL97 reduction of the number of PML bodies [5]: neither the K355M mutant, or pUL97 in the presence of maribavir could affect their numbers
- Levels of hyperphosphorylated Rb ([6]; HFF cells infected with UL97 deletion virus RCΔ97): relatively unaffected
- Increase in levels of p53 ([6]; HFF cells infected with wt virus): unaffected
- Increase of hyperphosphorylated Rb ([6]; HFF cells infected with wt virus AD169, 24 hours post infection): did not occur
- Levels of hyperphosphorylated Rb ([6]; HFF cells infected with wt virus AD169, 72 hours after infection): significantly reduced
- Hyperphosphorylated forms of Rb ([6]; infected cells, 24 and 72 hours, FIG. 4 legend): reduced
- Inhibition of HHV-6 replication [7]: poor inhibitor
